Test results reported in publication PMC6412381, “Covalently Linking Oligomerization-Impaired GlpF Protomers Does Not Completely Re-establish Wild-Type Channel Activity” (International Journal of Molecular Sciences, 2019).

Columns and labels:
[1] = target: T1, WT4 (genetically fused GlpF tetramer) (Escherichia coli, UniProt P0AER0); assay: stopped-flow light scattering of E. coli SK46 cells, re-swelling by ribitol influx; format: cell-based; settings: LB medium, mixed with equal volume of 600 mM ribitol, 25 °C, 500 µM IPTG induction; transport through channel
T1 construct: four full-length GlpF copies fused in one polypeptide, N-terminal extension MGSGLE, Val-Glu linkers between monomers, calculated 120 kDa; expressed in E. coli SK46 lacking GlpF and AqpZ
T1 sequence (P0AER0 1-281): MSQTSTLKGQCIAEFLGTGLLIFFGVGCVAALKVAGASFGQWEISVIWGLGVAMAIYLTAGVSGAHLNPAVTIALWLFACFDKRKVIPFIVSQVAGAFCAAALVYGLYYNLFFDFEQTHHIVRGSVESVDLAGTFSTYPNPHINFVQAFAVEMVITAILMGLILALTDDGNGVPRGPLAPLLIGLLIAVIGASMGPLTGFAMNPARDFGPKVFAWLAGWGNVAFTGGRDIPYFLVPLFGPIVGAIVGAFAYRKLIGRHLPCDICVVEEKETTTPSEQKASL

[2] = target: T2, GlpF WT (non-fused) (Escherichia coli, UniProt P0AER0); assay: as above; format: cell-based; settings: LB medium, mixed with equal volume of 600 mM ribitol, 25 °C, 500 µM IPTG induction; transport through channel
T2 construct: expressed from pMalp2-based plasmid in E. coli SK46 lacking GlpF and AqpZ
T2 sequence (P0AER0 1-281): T1 sequence (P0AER0 1-281)

OC[C@@H](O)[C@@H](O)[C@@H](O)CO [ribitol]
k (flux rate constant) [1]: yet the WT4 protein was still highly active
k (flux rate constant) [2]: the ribitol conductance of the fused GlpF tetramer was slightly decreased compared to the non-fused
